Values quoted from earlier work, collected in US5691376A, “Substituted biphenyl derivatives” (American Home Products Corporation, priority 1996, dated 1997).

How the values were obtained:
[1] = test system: humoral (IgE-like) antibodies; details: albumin allergic challenge; Martel 1977; cited from earlier work
[2] = test system: murine T-cell; details: Strauch 1989; cited from earlier work

CO[C@H]1C[C@@H]2CC[C@@H](C)[C@@](O)(O2)C(=O)C(=O)N2CCCC[C@H]2C(=O)O[C@H]([C@H](C)C[C@@H]2CC[C@@H](O)[C@H](OC)C2)CC(=O)[C@H](C)/C=C(\C)[C@@H](O)[C@@H](OC)C(=O)[C@H](C)C[C@H](C)/C=C/C=C/C=C/1C [Rapamycin]
prevention of formation of humoral (IgE-like) antibodies [1]: prevent the formation of humoral (IgE-like) antibodies in response to an albumin allergic challenge | inhibition of T-cell activation [2]: inhibit murine T-cell activation
